{
  "source": "patent US10005767B2",
  "about": "“Compositions and methods for inhibition of the JAK pathway” (Rigel Pharmaceuticals, Inc., priority 2009, dated 2018)",
  "note": "Structures can show the parent of a compound that is named as a salt.",
  "data": [
    {"system": "human primary T-cells, IL-2 stimulated proliferation (JAK-1 and JAK-3 dependent; reported as JAK3 activity)", "assay": "Human primary T-cell proliferation stimulated by IL-2 (Example 3)", "assay_type": "cell-based", "details": "Homo sapiens, T-cell, tested under conditions described in Example 3 (IL-2 stimulated human primary T-cell proliferation); read-out: ability to inhibit JAK3 activity, IC50 range (Table V)", "outline": "(§1)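 Peripheral-blood human T-cells pre-activated via TCR/CD28, IL-2-starved overnight, then cultured 72 h at 37 °C with compound in Yssel's medium containing IL-2 (80 U/mL in cell suspension). Proliferation read as viable-cell ATP by CellTiter-Glo luminescence; reduction versus control taken as JAK pathway inhibition.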", "units": {"IC50": "nM"}, "values": [
      {"smiles": "COc1ccc(Nc2ncc(C)c(Nc3ccc4oc(=O)[nH]c4c3)n2)cc1", "note": "[Compound I-272, 5-(2-(4-methoxyphenylamino)-5-methylpyrimidin-4-ylamino)benzo[d]oxazol-2(3H)-one]", "IC50": "< 500"},
      {"smiles": "CCCN1Cc2ccc(Nc3ncc(C)c(Nc4ccc5oc(=O)[nH]c5c4)n3)cc2C1", "note": "[III-6, N4-(benzo[d]oxazol-2(3H)-on-5-yl)-N2-(2-n-propylisoindolin-5-yl)-5-methylpyrimidine-2,4-diamine]", "IC50": "< 500"},
      {"smiles": "CCNC(=O)c1ccc(Nc2ncc(C)c(Nc3ccc4oc(=O)[nH]c4c3)n2)cc1C", "note": "[Compound I-171, N-Ethyl-2-methyl-4-[5-methyl-4-(2-oxo-2,3-dihydro-benzooxazol-5-ylamino)-pyrimidin-2-ylamino]-benzamide]", "IC50": "< 500"},
      {"smiles": "Cc1cnc(Nc2cccc(C(F)(F)F)c2)nc1Nc1ccc2oc(=O)[nH]c2c1", "note": "[Compound I-158, 5-[5-Methyl-2-(3-trifluoromethyl-phenylamino)-pyrimidin-4-ylamino]-3H-benzooxazol-2-one]", "IC50": "< 500"},
      {"smiles": "CC(=O)Nc1ccc(Nc2ncc(C)c(Nc3ccc4oc(=O)[nH]c4c3)n2)cc1C(F)(F)F", "note": "[Compound I-177, N-{4-[5-Methyl-4-(2-oxo-2,3-dihydro-benzooxazol-5-ylamino)-pyrimidin-2-ylamino]-2-trifluoromethyl-phenyl}-acetamide]", "IC50": "< 500"},
      {"smiles": "Cc1cnc(Nc2ccc(N3CCC(N4CCOCC4)C3)nc2)nc1Nc1ccc2oc(=O)[nH]c2c1", "note": "(stereo not shown) [II-84, 5-(5-methyl-2-(6-(3-morpholinopyrrolidin-1-yl)pyridin-3-ylamino)pyrimidin-4-ylamino)benzo[d]oxazol-2(3H)-one]", "IC50": "< 500"},
      {"smiles": "Cc1ccc(Nc2ncc(C)c(Nc3ccc4oc(=O)[nH]c4c3)n2)cc1C(F)F", "note": "[Compound I-438, 5-(2-(3-(difluoromethyl)-4-methylphenylamino)-5-methylpyrimidin-4-ylamino)benzo[d]oxazol-2(3H)-one]", "IC50": "< 500"},
      {"smiles": "Cc1cnc(Nc2ccc3onc(C)c3c2)nc1Nc1ccc2oc(=O)[nH]c2c1", "note": "[IV-9, N4-(benzo[d]oxazol-2(3H)-on-5-yl)-N2-(3-methyl-1,2-benzisoxazol-5-yl)-5-methylpyrimidine-2,4-diamine]", "IC50": "< 500"},
      {"smiles": "COc1cc(Nc2ncc(C)c(Nc3cc(C)c4oc(=O)[nH]c4c3)n2)cc(C)c1F", "note": "[Compound I-491, 5-(2-(4-fluoro-3-methoxy-5-methylphenylamino)-5-methylpyrimidin-4-ylamino)-7-methylbenzo[d]oxazol-2(3H)-one]", "IC50": "< 500"},
      {"smiles": "CN1CCN(c2ccc(Nc3ncc(F)c(Nc4ccc5oc(=O)[nH]c5c4)n3)cn2)CC1", "note": "[II-14, N4-(benzo[d]oxazol-2(3H)-on-5-yl)-N2-[2-(4-methylpiperazin-1-yl)pyridin-5-yl]-5-fluoropyrimidine-2,4-diamine]", "IC50": "< 500"},
      {"smiles": "COc1cc(Nc2ncc(C)c(Nc3ccc4oc(=O)[nH]c4c3)n2)ccc1C(=O)Nc1ccccc1", "note": "[Compound I-221, 2-methoxy-4-(5-methyl-4-(2-oxo-2,3-dihydrobenzo[d]oxazol-5-ylamino)pyrimidin-2-ylamino)-N-phenylbenzamide]", "IC50": "< 500"},
      {"smiles": "COC(=O)N1C2CCC1CC(c1ncc(Nc3ncc(C)c(Nc4ccc5oc(=O)[nH]c5c4)n3)cc1C)C2", "note": "(stereo not shown) [II-68, methyl 3-(3-methyl-5-(5-methyl-4-(2-oxo-2,3-dihydrobenzo[d]oxazol-5-ylamino)pyrimidin-2-ylamino)pyridin-2-yl)-8-azabicyclo[3.2.1]octane-8-carboxylate]", "IC50": "< 500"},
      {"smiles": "Cc1cnc(Nc2cc(F)ccc2F)nc1Nc1ccc2oc(=O)[nH]c2c1", "note": "[Compound I-466, 5-[2-(2,5-Difluoro-phenylamino)-5-methyl-pyrimidin-4-ylamino]-3H-benzooxazol-2-one]", "IC50": "< 500"},
      {"smiles": "Cc1cnc(Nc2ccc3c(c2)CCNC3=O)nc1Nc1ccc2oc(=O)[nH]c2c1", "note": "[IV-15, 6-[5-Methyl-4-(2-oxo-2,3-dihydro-benzooxazol-5-ylamino)-pyrimidin-2-ylamino]-3,4-dihydro-2H-isoquinolin-1-one]", "IC50": "< 500"},
      {"smiles": "CCCC(NC)c1cc(Nc2ncc(C)c(Nc3ccc4oc(=O)[nH]c4c3)n2)cc(C(F)(F)F)c1", "note": "(stereo not shown) [Compound I-460, 5-(5-methyl-2-(3-(1-(methylamino)butyl)-5-(trifluoromethyl)phenylamino)pyrimidin-4-ylamino)benzo[d]oxazol-2(3H)-one]", "IC50": "< 500"},
      {"smiles": "COc1ncc(Nc2ncc(C)c(Nc3ccc4oc(=O)[nH]c4c3)n2)cc1C(F)(F)F", "note": "[II-147, N2-(2-methoxy-3-trifluoromethylpyridin-5-yl)-5-methyl-N4-(2-oxo-2,3-dihydro-1,3-benzoxazol-5-yl)-2,4-pyrimidinediamine]", "IC50": "< 500"},
      {"smiles": "Cc1cnc(Nc2cc(Cl)c(F)c(C(F)(F)F)c2)nc1Nc1ccc2oc(=O)[nH]c2c1", "note": "[Compound I-230, 5-(2-(3-chloro-4-fluoro-5-(trifluoromethyl)phenylamino)-5-methylpyrimidin-4-ylamino)benzo[d]oxazol-2(3H)-one]", "IC50": "500 to 5000"},
      {"smiles": "Cc1cnc(Nc2ccc(C(N)=O)c(N3CCC(C)CC3)c2)nc1Nc1ccc2oc(=O)[nH]c2c1", "note": "[Compound I-156, 4-[5-Methyl-4-(2-oxo-2,3-dihydro-benzooxazol-5-ylamino)-pyrimidin-2-ylamino]-2-(4-methyl-piperidin-1-yl)-benzamide]", "IC50": "< 500"},
      {"smiles": "COc1ccc(Nc2ncc(C)c(Nc3ccc4oc(=O)[nH]c4c3)n2)cc1-c1ccncc1", "note": "[Compound I-486, 5-(2-(4-methoxy-3-(pyridin-4-yl)phenylamino)-5-methylpyrimidin-4-ylamino)benzo[d]oxazol-2(3H)-one formate salt]", "IC50": "< 500"},
      {"smiles": "Cc1cnc(Nc2cc(Cl)cc(C(F)(F)F)c2)nc1Nc1ccc2oc(=O)[nH]c2c1", "note": "[Compound I-497, 5-[2-(3-Chloro-5-trifluoromethyl-phenylamino)-5-methyl-pyrimidin-4-ylamino]-3H-benzooxazol-2-one]", "IC50": "> 10000"}
    ]},
    {"system": "human primary T-cells, IL-2 stimulated proliferation (JAK-1 and JAK-3 dependent; reported as JAK3 activity)", "assay": "Human primary T-cell proliferation stimulated by IL-2 (Example 3)", "assay_type": "cell-based", "details": "tested under conditions described in Example 3 (IL-2 stimulated human primary T-cell proliferation); read-out: ability to inhibit JAK3 activity, IC50 range (Table V)", "outline": "as §1", "units": {"IC50": "nM"}, "values": [
      {"smiles": "Cc1cnc(Nc2ccc(S(N)(=O)=O)cc2)nc1Nc1ccc2oc(=O)[nH]c2c1", "note": "[Compound I-15]", "IC50": "< 500"},
      {"smiles": "COc1c(C(C)C)cc(Nc2ncc(C)c(Nc3ccc4oc(=O)[nH]c4c3)n2)cc1C(C)C", "note": "[Compound I-371, N2-(3,5-diisopropyl-4-methoxy)phenyl-5-methyl-N4-(2-oxo-2,3-dihydro-1,3-benzoxazol-5-yl)-2,4-pyrimidinediamine]", "IC50": "500 to 5000"},
      {"smiles": "Cc1cnc(Nc2ccc(F)c(Cl)c2)nc1Nc1ccc2oc(=O)[nH]c2c1", "note": "[Compound I-399, N2-(3-chloro-4-fluoro)phenyl-5-methyl-N4-(2-oxo-2,3-dihydro-1,3-benzoxazol-5-yl)-2,4-pyrimidinediamine]", "IC50": "< 500"},
      {"smiles": "Cc1ccc(Nc2ncc(C)c(Nc3ccc4oc(=O)[nH]c4c3)n2)cc1OC(C)(C)C(N)=O", "note": "[Compound I-392, N2-[3-(1-aminocarbonyl-1-methyl)ethoxy-4-methyl]phenyl-5-methyl-N4-(2-oxo-2,3-dihydro-1,3-benzoxazol-5-yl)-2,4-pyrimidinediamine]", "IC50": "< 500"},
      {"smiles": "Cn1c(=O)n(C)c2cc(Nc3nc(Nc4ccc(NS(C)(=O)=O)cc4)ncc3F)ccc21", "note": "[Compound I-43, N4-(1,3-dimethylbenzimidazolin-2-on-5-yl)-N2-((4-methylsulfonylamino)phenyl)-5-fluoropyrimidine-2,4-diamine]", "IC50": "500 to 5000"},
      {"smiles": "Cc1cnc(Nc2ccc(C#N)c(C(F)(F)F)c2)nc1Nc1ccc2oc(=O)[nH]c2c1", "note": "[Compound I-303, N2-(4-cyano-3-trifluoromethyl)phenyl-5-methyl-N4-(2-oxo-2,3-dihydro-1,3-benzoxazol-5-yl)-2,4-pyrimidinediamine]", "IC50": "< 500"},
      {"smiles": "Cc1cnc(Nc2cc(F)c(OC(F)F)c(F)c2)nc1Nc1ccc2oc(=O)[nH]c2c1", "note": "[Compound I-388, N2-(3,5-difluoro-4-difluoromethoxy)phenyl-5-methyl-N4-(2-oxo-2,3-dihydro-1,3-benzoxazol-5-yl)-2,4-pyrimidinediamine]", "IC50": "< 500"},
      {"smiles": "Cc1cnc(Nc2ccc3c(c2)OCO3)nc1Nc1ccc2oc(=O)[nH]c2c1", "note": "[IV-35, 5-methyl-N2-(3,4-methylenedioxy)phenyl-N4-(2-oxo-2,3-dihydro-1,3-benzoxazol-5-yl)-2,4-pyrimidinediamine]", "IC50": "< 500"},
      {"smiles": "Cc1cnc(Nc2cc(OCC(C)C)cc(C(F)(F)F)c2)nc1Nc1ccc2oc(=O)[nH]c2c1", "note": "[Compound I-224, -(2-(3-isobutoxy-5-(trifluoromethyl)phenylamino)-5-methylpyrimidin-4-ylamino)benzo[d]oxazol-2(3H)-one]", "IC50": "500 to 5000"},
      {"smiles": "CNC(=O)COc1cccc(Nc2ncc(C)c(Nc3ccc4oc(=O)[nH]c4c3)n2)c1C", "note": "[Compound I-325, 5-methyl-N2-(2-methyl-3-methylaminocarbonylmethoxy)phenyl-N4-(2-oxo-2,3-dihydro-1,3-benzoxazol-5-yl)-2,4-pyrimidinediamine]", "IC50": "500 to 5000"},
      {"smiles": "Cc1cnc(Nc2cnc(N3CCN4CCC3CC4)c(F)c2)nc1Nc1ccc2oc(=O)[nH]c2c1", "note": "[II-125, N2-[2-(1,4-diazabicylco[3.2.2]nonan-4-yl)-3-fluoropyridin-5-yl]-5-methyl-N4-(2-oxo-2,3-dihydro-1,3-benzoxazol-5-yl)-2,4-pyrimidinediamine]", "IC50": "< 500"},
      {"smiles": "Cc1cnc(Nc2cc(C)c(C)c(C)c2)nc1Nc1ccc2oc(=O)[nH]c2c1", "note": "[Compound I-365, N2-(3,4,5-trimethyl)phenyl-5-methyl-N4-(2-oxo-2,3-dihydro-1,3-benzoxazol-5-yl)-2,4-pyrimidinediamine]", "IC50": "< 500"},
      {"smiles": "Cc1cnc(Nc2cccc(S(=O)(=O)NC(C)C)c2)nc1Nc1ccc2oc(=O)[nH]c2c1", "note": "[Compound I-114, N4-(benzoxazolin-2-on-5-yl)-N2-[3-N-(i-propyl)aminosulfonylphenyl]-5-methylpyrimidine-2,4-diamine]", "IC50": "< 500"},
      {"smiles": "Cc1cnc(Nc2ccncc2F)nc1Nc1ccc2oc(=O)[nH]c2c1", "note": "[IV-63, N2-(3-fluoropyridin-4-yl)-5-methyl-N4-(2-oxo-2,3-dihydro-1,3-benzoxazol-5-yl)-2,4-pyrimidinediamine]", "IC50": "5000 to 10000"}
    ]}
  ]
}
